ChEMBL document CHEMBL3885861, “Open TG-GATES”

Species: Rattus norvegicus
Assay: Open TG-GATES - Regimen: Single
Format: toxicity, organism-based, Sprague-Dawley
Set-up: regimen Single, gender Male, age 6 weeks
Conditions: in vivo, po, 0 mg/kg, route gavage, dose level Control; for APTT / Bas / Eos / Fbg / Hb / Ht / Lym / MCH / MCHC / MCV / Mono / Neu / PT / Plat / RBC / Ret / WBC: tissue Blood; for KIDNEY_L / KIDNEY_R / KIDNEY_TOTAL: tissue Kidney; for LIVER: tissue Liver; for A/G / ALP / ALT / AST / BUN / CRE / Ca / Cl / DBIL / GLC / IP / K / LDH / Na / PL / RALB / TBIL / TC / TG / TP / gamma-GTP: tissue Plasma

S=C=Nc1cccc2ccccc12 [1-NAPHTHYLISOTHIOCYANATE] showed a TERMINAL_BW (3 h) of 224.9 g, an APTT (3 h) of 18.6 s and a Bas (3 h) of 0%. It also gave an Eos (3 h) of 1%, a Fbg (3 h) of 223 mg/dL and a Hb (3 h) of 13.7 g/dL. It also gave a Ht (3 h) of 37.8%, a Lym (3 h) of 78% and an MCH (3 h) of 22.1 pg. For the same molecule, the MCHC (3 h) was 36.2%, the MCV (3 h) was 61 fL and the Mono (3 h) was 2.6%. The Neu (3 h) was 17.6%, the PT (3 h) was 11.9 s and the Plat (3 h) was 124.1 x10_4/uL. For the same molecule, the RBC (3 h) was 619.8 x10_4/ul, the Ret (3 h) was 8.2% and the WBC (3 h) was 101.9 x10_2/uL. For the same molecule, the KIDNEY_L (3 h) was 1 g, the KIDNEY_R (3 h) was 1 g and the KIDNEY_TOTAL (3 h) was 2 g. It also gave an LIVER (3 h) of 10.2 g, an A/G (3 h) of 1.6 and an ALP (3 h) of 937 IU/L. The ALT (3 h) was 37.6 IU/L, the AST (3 h) was 73 IU/L and the BUN (3 h) was 11.2 mg/dL. The CRE (3 h) was 0.4 mg/dL, the Ca (3 h) was 10.9 mg/dL and the Cl (3 h) was 103.4 meq/L. The DBIL (3 h) was 0.07 mg/dL, the GLC (3 h) was 200.8 mg/dL and the IP (3 h) was 9.4 mg/dL. For the same molecule, the K (3 h) was 3.9 meq/L, the LDH (3 h) was 189.2 IU/L and the Na (3 h) was 141.6 meq/L. The PL (3 h) was 161.6 mg/dL, the RALB (3 h) was 3.4 g/dL and the TBIL (3 h) was 0.1 mg/dL. The TC (3 h) was 81 mg/dL, the TG (3 h) was 82.2 mg/dL and the TP (3 h) was 5.5 g/dL. It also gave a gamma-GTP (3 h) of 1 IU/L, a TERMINAL_BW (6 h) of 218.1 g and an APTT (6 h) of 18.7 s. For the same molecule, the Bas (6 h) was 0.2%, the Eos (6 h) was 0.8% and the Fbg (6 h) was 232.2 mg/dL. The Hb (6 h) was 13.4 g/dL, the Ht (6 h) was 37.2% and the Lym (6 h) was 76%. It also gave an MCH (6 h) of 22 pg, an MCHC (6 h) of 36% and an MCV (6 h) of 61.2 fL. For the same molecule, the Mono (6 h) was 3.4%, the Neu (6 h) was 18.4% and the PT (6 h) was 11.8 s. The Plat (6 h) was 128 x10_4/uL, the RBC (6 h) was 609.2 x10_4/ul and the Ret (6 h) was 7.2%. It also gave a WBC (6 h) of 106.9 x10_2/uL, a KIDNEY_L (6 h) of 1 g and a KIDNEY_R (6 h) of 1 g. It also gave a KIDNEY_TOTAL (6 h) of 2 g, an LIVER (6 h) of 9.6 g and an A/G (6 h) of 1.8. It also gave an ALP (6 h) of 1087 IU/L, an ALT (6 h) of 35.6 IU/L and an AST (6 h) of 71.8 IU/L. It also gave a BUN (6 h) of 10 mg/dL, a CRE (6 h) of 0.4 mg/dL and a Ca (6 h) of 10.6 mg/dL. For the same molecule, the Cl (6 h) was 103.8 meq/L, the DBIL (6 h) was 0.07 mg/dL and the GLC (6 h) was 192 mg/dL. It also gave an IP (6 h) of 10 mg/dL, a K (6 h) of 3.8 meq/L and an LDH (6 h) of 167.6 IU/L. It also gave a Na (6 h) of 141.8 meq/L, a PL (6 h) of 142.8 mg/dL and an RALB (6 h) of 3.5 g/dL. The TBIL (6 h) was 0.1 mg/dL, the TC (6 h) was 76.2 mg/dL and the TG (6 h) was 63.8 mg/dL. It also gave a TP (6 h) of 5.4 g/dL, a gamma-GTP (6 h) of 1 IU/L and a TERMINAL_BW (9 h) of 216.9 g. The APTT (9 h) was 17.6 s, the Bas (9 h) was 0.2% and the Eos (9 h) was 0.8%. It also gave a Fbg (9 h) of 234.6 mg/dL, a Hb (9 h) of 13.3 g/dL and a Ht (9 h) of 36.8%. The Lym (9 h) was 75%, the MCH (9 h) was 21.7 pg and the MCHC (9 h) was 36.1%. It also gave an MCV (9 h) of 60.1 fL, a Mono (9 h) of 2.2% and a Neu (9 h) of 20.8%. For the same molecule, the PT (9 h) was 12.2 s, the Plat (9 h) was 121.1 x10_4/uL and the RBC (9 h) was 612 x10_4/ul. For the same molecule, the Ret (9 h) was 6.9%, the WBC (9 h) was 90.1 x10_2/uL and the KIDNEY_L (9 h) was 0.9 g. For the same molecule, the KIDNEY_R (9 h) was 1 g, the KIDNEY_TOTAL (9 h) was 1.9 g and the LIVER (9 h) was 8.8 g. For the same molecule, the A/G (9 h) was 1.8, the ALP (9 h) was 908.4 IU/L and the ALT (9 h) was 28.8 IU/L. The AST (9 h) was 57.4 IU/L, the BUN (9 h) was 10.8 mg/dL and the CRE (9 h) was 0.4 mg/dL. It also gave a Ca (9 h) of 10.7 mg/dL, a Cl (9 h) of 103.6 meq/L and a DBIL (9 h) of 0.07 mg/dL. It also gave a GLC (9 h) of 201.4 mg/dL, an IP (9 h) of 10.3 mg/dL and a K (9 h) of 4 meq/L. The LDH (9 h) was 145.6 IU/L, the Na (9 h) was 141.8 meq/L and the PL (9 h) was 139 mg/dL. For the same molecule, the RALB (9 h) was 3.5 g/dL, the TBIL (9 h) was 0.1 mg/dL and the TC (9 h) was 74.4 mg/dL. The TG (9 h) was 50.8 mg/dL, the TP (9 h) was 5.5 g/dL and the gamma-GTP (9 h) was 1 IU/L. It also gave a TERMINAL_BW (24 h) of 234.7 g, an APTT (24 h) of 17.8 s and a Bas (24 h) of 0.4%. For the same molecule, the Eos (24 h) was 0.8%, the Fbg (24 h) was 222.8 mg/dL and the Hb (24 h) was 13.4 g/dL. The Ht (24 h) was 37.5%, the Lym (24 h) was 81.6% and the MCH (24 h) was 22.2 pg. The MCHC (24 h) was 35.6%, the MCV (24 h) was 62.5 fL and the Mono (24 h) was 3%. The Neu (24 h) was 13.6%, the PT (24 h) was 11.7 s and the Plat (24 h) was 128.7 x10_4/uL. The RBC (24 h) was 601 x10_4/ul, the Ret (24 h) was 6.6% and the WBC (24 h) was 91.3 x10_2/uL. For the same molecule, the KIDNEY_L (24 h) was 1 g, the KIDNEY_R (24 h) was 1 g and the KIDNEY_TOTAL (24 h) was 2 g. For the same molecule, the LIVER (24 h) was 10.8 g, the A/G (24 h) was 1.6 and the ALP (24 h) was 1087.6 IU/L. The ALT (24 h) was 37.8 IU/L, the AST (24 h) was 75.8 IU/L and the BUN (24 h) was 15.2 mg/dL. The CRE (24 h) was 0.4 mg/dL, the Ca (24 h) was 10.8 mg/dL and the Cl (24 h) was 103.6 meq/L. It also gave a DBIL (24 h) of 0.062 mg/dL, a GLC (24 h) of 188.8 mg/dL and an IP (24 h) of 7.6 mg/dL. It also gave a K (24 h) of 3.9 meq/L, an LDH (24 h) of 214.6 IU/L and a Na (24 h) of 141.6 meq/L. It also gave a PL (24 h) of 140.4 mg/dL, an RALB (24 h) of 3.4 g/dL and a TBIL (24 h) of 0.1 mg/dL. It also gave a TC (24 h) of 70.8 mg/dL, a TG (24 h) of 100.2 mg/dL and a TP (24 h) of 5.6 g/dL. For the same molecule, the gamma-GTP (24 h) was 1.2 IU/L.
